Experimental findings from patent US20140243401A1, “METHODS OF SCREENING COMPOUNDS THAT ARE CYTOTOXIC TO TUMOR CELLS AND METHODS OF TREATING TUMOR CELLS USING SUCH COMPOUND” (The Johns Hopkins University, priority 2010, published 2014) are described below.

Values after ≈ are worked out from the molar mass of the structure shown.

Experiment [1] concerns MCF7 cells. The experiment in a line: 14C-acetate incorporation into lipids in MCF7 cells. The experiment is classed as cell-based, human. The following applies: for IC50: Homo sapiens, MCF7 cells. As for the experimental part: MCF7 human breast cancer cells (a cell line which overexpresses FAS) were cultured in DMEM containing 5 mM glucose medium with 10% fetal calf serum, 0.01 mg/ml insulin and 1% penicillin/streptomycin. For measurement of fatty acid synthesis cells were cultured in 24-well plates at 5×10^4 per well and incubated overnight. Fatty acid synthesis was assayed by a 2 h pulse of [U^14C]acetate, 1 μCi/well, followed by Folch extraction and scintillation counting. Test compounds were added with the addition of drugs as described. Controls were treated with DMSO alone.
MCF7 human breast cancer cells were cultured in DMEM containing 1 mM or 5 mM glucose in the medium with 10% fetal calf serum, 0.01 mg/ml insulin and 1% penicillin/streptomycin. The cells were grown in two oxygen conditions, normoxia (21% 02) or hypoxia (1% 02). For measurement of fatty acid synthesis cells were cultured in 24-well plates at 5×10^4 per well and incubated overnight. Fatty acid synthesis was assayed by a 2 h pulse of [U^14C]acetate, 1 μCi/well, followed by Folch extraction and scintillation counting with the addition of drugs as described. Controls were treated with DMSO alone.

Experiment [2] concerns MCF7 cells. The experiment in a line: cellular ATP level, bioluminescence. The format is cell-based, human. How it is done: As mitochondria serve as the energy production center of the cell, their main purpose is the generation of ATP. As a functional readout, cellular ATP levels may be measured to obtain an indication of mitochondrial status upon compound treatment. MCF-7 cells were cultured the standard medium, and ATP levels were measured by chemiluminescence.
MCF7 human breast cancer cells cultured in DMEM containing 5 mM glucose medium with 10% fetal calf serum, 0.01 mg/ml insulin and 1% penicillin/streptomycin. Cells were plated in 24-well cell culture plates at 2×10^5 per well overnight. After drug treatment, cells were lysed using 500 μl of TE buffer (4 mM Tris, 0.25 mM EDTA, pH 7.4) and boiled at 95° C. for 7 min. ATP levels were measured within the linear range using the ATP BioLuminescence Kit CLSII (Roche) by following the manufacture's recommendation. Luminescence was detected using PerkinElmer Victor 1420.
Determination of the effect on cellular ATP level was carried out using the procedure described above. Cells were plated in 24 well cell culture plates at 2×10^5 per well overnight. Cells were cultured in 1 mM or 5 mM glucose at either 1% or 21% (ambient) oxygen levels. […] ATP levels were measured within the linear range using the ATP Bioluminescence Kit CLSII (Roche) by following the manufacture's recommendation. Luminescence was detected using PerkinElmer Victor 1420.

Experiment [3] relates to Human colon cancer cell line. The experiment is described as follows: XTT cytotoxicity assay, human colon cancer cell line. The format is cell-based. To be noted: 1 human colon cancer cell line, read-out: LC50 (the source's name). How it is done: (§1) Cytotoxicity can be easily measured using XTT assays, which provide an indication of mitochondrial activity. The XTT assay is a non-radioactive alternative for the [^51Cr] release cytotoxicity assay. XTT is a tetrazolium salt that is reduced to a formazan dye only by metabolically active, viable cells. The reduction of XTT is measured spectrophotometrically as OD490-OD650. Thus, cells that are actively metabolizing will form reaction product when subjected to XTT measurement.
(§2) For this experiment, cells were cultured under standard culture conditions. MCF7 human breast cancer cells were cultured in DMEM containing 5 mM glucose medium with 10% fetal calf serum, 0.01 mg/ml insulin and 1% penicillin/streptomycin. To measure the cytotoxicity of specific compounds against cancer cells, 9×10^3 MCF7 cells were plated per well in 96-well plates. Following overnight culture, the compounds, dissolved in DMSO, were added to the wells in 1 μl volume at specified concentrations. Vehicle controls were run for each experiment. Each condition was run in triplicate. […] Plates were read at OD490 on a PerkinElmer Victor 1420. […]
(§3) Using the XTT assay, LC50 values for C31 were determined for numerous human cancer cell lines and human hepatocytes, as shown in the following table: […]
A general note: Tetrazolium assays rely on reduction of a dye to a coloured formazan, in cell work by metabolically active cells.

Experiment [4] concerns Human hepatoma cell line. The experiment in a line: XTT cytotoxicity assay, human hepatoma cell line. The format is cell-based. The following applies: 1 human hepatoma cell line, read-out: LC50 (the source's name). As for the experimental part:
as §1, §2, §3

For experiment [5], the system named is MCF 7 cells. The experiment is described as follows: clonogenic assay. The format is cell-based, human. To be noted: MCF 7, FIG. 4(C). As for the experimental part: In this assay, the effectiveness of specific agents on cell survival and proliferation can be measured in a functional sense. After treatment, surviving cells are re-plated to determine whether the surviving cells are still capable of proliferation. Therefore, this if a more direct measure of cell survival and function.
4×10^5 cells were plated in 25 cm^2 flasks. After overnight culture, cells are treated with compounds for specified times and concentrations. After drug treatment, cells are trypsinized and equal numbers of treated and control cells are plated in triplicate in 60-mm dishes at a density of 500 cells/dish in medium without drugs. Clones are stained and counted after 7-10 days
MCF 7 cells were treated with vehicle, C31 at increasing doses, or Riv7d.

In experiment [6] the test system is HCT116 human colon cancer xenograft. The experiment is described as follows: tumor xenograft size, HCT116. The following applies: 50 mg/kg. The experiment is classed as in vivo, Athymic Nude mice. How it is done:
(§4) Xenograft studies were performed using various mmFAS inhibitors disclosed herein. Human cancer xenograft studies are known in the art. (See Pizer et al., Cancer Res. 56:1189-1193, 1996; Pizer et al., Cancer Res. 60: 213-218, 2000; Testa et al., Oncogene 24: 7455-7464, 2005).
(§5) In particular, C31 mouse efficacy studies were conducted in order to evaluate anti-neoplastic activity of C31 in vivo. Athymic Nude mice were implanted with HCT116 human colon, SKOV3 human ovarian or OVCAR3 human ovarian cancer cell lines and were treated when the grown tumor xenografts reached at least 150 to 200 mm^3.^1 ^1 Compounds were solubilized in TEP (80% polyethylene glycol (PEG) 400, 10% ethanol, 10% tween-80) in a volume of 50 μL.

Experiment [7] deals with OVCAR3 human ovarian cancer xenograft. The experiment is described as follows: tumor xenograft size, OVCAR3. The experiment is classed as in vivo, Athymic Nude mice. To be noted: Study 1129063207, OVCAR-3, oral b.i.d. 11 days, 50 mg/kg. How it is done:
as §4, §5

What is called IC50 is the midpoint of a concentration-inhibition curve. Low values mean greater potency, high ones weaker potency. Turning to `CCCCCCCCC1(C)SC(=O)C=C1OCC(=O)Nc1ccc(Cl)cc1` (centres unmarked) [Compound C31], the IC50 was found to be 17 µg/mL in experiment [1] (first experiment, FIG. 1) and 13.6 µM in experiment [1] (second experiment). Moreover, the “inhibition of FAS activity (14C-acetate incorporation)” value in experiment [1] (MCF7, 1 mM or 5 mM glucose, 21% or 1% O2, FIG. 14) is “increasingly effective at inhibiting FAS activity”. For the same compound, the ATP levels entry in experiment [2] (MCF7, 1 mM or 5 mM glucose, 1% or 21% oxygen, FIG. 10) was “ATP levels declined in all of the cells”; in experiment [2] (MCF7, standard medium 5 mM glucose, FIG. 5), “rapidly decreased”. In addition, the CC50 in experiment [3] was found to be 4 µg/mL (≈ 9.76 µM); in experiment [4], 5 µg/mL (≈ 12.2 µM). Also, the “viability in clonogenic assay” value in experiment [5] is on record as “dose-dependent decrease in viability”. The “Average Tumor Size Endpoint (% Change)” value in experiment [6] (Study 72406, HCT-116, IP b.i.d. 8 days) was −59 % Change; in experiment [6] (Study 101707, HCT-116, oral b.i.d. 16 days) it was “+256 % Change”; in experiment [7], −59 % Change.
